Experimental data from patent publication US8952024B2, “Herbicidal pyrimidone derivatives” (E I du Pont de Nemours and Company, priority 2009, dated 2015).

What was measured:
Type in all cases: in vivo
[1] = test system: Italian ryegrass (Lolium multiflorum); experiment: Test B pre-/postemergence plant response; conditions: for Plant response rating, Ryegrass, Italian: Postemergence
How it was run: (§1)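 Seeds were sown in loam soil/sand blend and treated preemergence with compound in non-phytotoxic solvent mixture containing surfactant; postemergence sprays, same formulation, went onto plants 2 to 18 cm (1- to 4-leaf stage) in peat-based planting medium. Greenhouse 13 to 15 days, then visual rating versus untreated controls, 0 (no effect) to 100 (complete control).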

[2] = test system: Surinam grass (Brachiaria decumbens); experiment: Test B pre-/postemergence plant response; conditions: for Plant response rating, Surinam Grass: Postemergence
How it was run: as §1

[3] = test system: bermudagrass (Cynodon dactylon); experiment: Test B pre-/postemergence plant response; conditions: for Bermudagrass plant response rating (0 to 100 scale): 62 g ai/ha, postemergence, 0 is no effect, 100 is complete control; for Plant response rating, Bermudagrass: Postemergence
How it was run: as §1

[4] = test system: blackgrass (Alopecurus myosuroides); experiment: Test B pre-/postemergence plant response; conditions: for Blackgrass plant response rating (0 to 100 scale): 62 g ai/ha, postemergence, 0 is no effect, 100 is complete control; for Plant response rating, Blackgrass: Postemergence
How it was run: as §1

[5] = test system: cocklebur (Xanthium strumarium); experiment: Test B pre-/postemergence plant response; conditions: for Plant response rating, Cocklebur: Postemergence
How it was run: as §1

corn (Zea mays) = experiment: Test B pre-/postemergence plant response; conditions: for Plant response rating, Corn: Postemergence
How it was run: as §1

[6] = test system: morningglory (Ipomoea coccinea); experiment: Test B pre-/postemergence plant response; conditions: for Plant response rating, Morningglory: Postemergence
How it was run: as §1

[7] = test system: ragweed (common ragweed, Ambrosia elatior); experiment: Test B pre-/postemergence plant response; conditions: for Plant response rating, Ragweed: Postemergence
How it was run: as §1

soybean (Glycine max) = experiment: Test B pre-/postemergence plant response; conditions: for Plant response rating, Soybean: Postemergence
How it was run: as §1

[8] = test system: barnyardgrass (Echinochloa crus-galli); experiment: Test B flooded paddy test; conditions: for Plant response rating, Flood, Barnyardgrass: 250 g ai/ha, flooded paddy test, visual rating on 0 to 100 scale (0 no effect, 100 complete control) after 13 to 15 days; for Plant response rating, Barnyardgrass: Flood (flooded paddy test), 13 to 15 days; for Barnyardgrass plant response rating: Flood, 31 g ai/ha, scale 0 to 100 (0 no effect, 100 complete control)
How it was run: (§2)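 Visual scores run from 0 (no effect) to 100 (complete control), assigned by comparison with controls 13 to 15 days after treatment. Test compounds went straight into water standing 3 cm above the soil, around plants at the 2-leaf stage kept in a greenhouse.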

[9] = test system: ducksalad (Heteranthera limosa); experiment: Test B flooded paddy test; conditions: for Plant response rating, Flood, Ducksalad: 250 g ai/ha, flooded paddy test, visual rating on 0 to 100 scale (0 no effect, 100 complete control) after 13 to 15 days; for Plant response rating, Ducksalad: Flood (flooded paddy test), 13 to 15 days; for Ducksalad plant response rating: Flood, 31 g ai/ha, scale 0 to 100 (0 no effect, 100 complete control)
How it was run: as §2

rice (Oryza sativa) = experiment: Test B flooded paddy test; conditions: for Plant response rating, Flood, Rice: 250 g ai/ha, flooded paddy test, visual rating on 0 to 100 scale (0 no effect, 100 complete control) after 13 to 15 days; for Plant response rating, Rice: Flood (flooded paddy test), 13 to 15 days; for Rice plant response rating: Flood, 31 g ai/ha, scale 0 to 100 (0 no effect, 100 complete control)
How it was run: as §2

[10] = test system: umbrella sedge (Cyperus difformis); experiment: Test B flooded paddy test; conditions: for Plant response rating, Flood, Sedge, Umbrella: 250 g ai/ha, flooded paddy test, visual rating on 0 to 100 scale (0 no effect, 100 complete control) after 13 to 15 days; for Plant response rating, Sedge, Umbrella: Flood (flooded paddy test), 13 to 15 days; for Sedge, Umbrella plant response rating: Flood, 31 g ai/ha, scale 0 to 100 (0 no effect, 100 complete control)
How it was run: as §2

[11] = 62 g ai/ha, postemergence, 0 is no effect, 100 is complete control, 13 to 15 days
[12] = 31 g ai/ha, 0 to 100 scale (0 no effect, 100 complete control)
[13] = 125 g ai/ha, scale 0 to 100 (0 no effect, 100 complete control)
[14] = 250 g ai/ha, scale 0 to 100 (0 no effect, 100 complete control), 13 to 15 days
[15] = 62 g ai/ha, scale of 0 to 100 where 0 is no effect and 100 is complete control
[16] = 125 g ai/ha, scale 0 to 100, 0 is no effect, 100 is complete control

In the case of `CCCn1c(-c2cccc(C(F)(F)F)c2)ncc(C(=O)C2=C(O)CCCC2=O)c1=O` [Compound 155], the “Ryegrass, Italian plant response rating (0 to 100 scale)” value [1, 11] is reported as 30, the “Plant response rating, Ryegrass, Italian” value [1, 12] is reported as 5 and the “Plant response rating, Ryegrass, Italian” value [1, 13] is reported as 40. For the same molecule, the “Plant response rating, Ryegrass, Italian” value [1, 14] was 60, the “Surinam Grass plant response rating (0 to 100 scale)” value [2, 11] was 55 and the “Plant response rating, Surinam Grass” value [2, 12] was 40. The “Plant response rating, Surinam Grass” value [2, 13] was 65, the “Plant response rating, Surinam Grass” value [2, 14] was 75 and the “Bermudagrass plant response rating (0 to 100 scale)” value ([3]; 13 to 15 days) was 98. For the same molecule, the “Plant response rating, Bermudagrass” value [3, 12] was 85, the “Plant response rating, Bermudagrass” value [3, 13] was 98 and the “Plant response rating, Bermudagrass” value [3, 14] was 100. For the same molecule, the “Blackgrass plant response rating (0 to 100 scale)” value ([4]; 13 to 15 days) was 35, the “Plant response rating, Blackgrass” value [4, 12] was 10 and the “Plant response rating, Blackgrass” value [4, 13] was 60. For the same molecule, the “Plant response rating, Blackgrass” value [4, 14] was 65, the “Cocklebur plant response rating (0 to 100 scale)” value [5, 11] was 55 and the “Plant response rating, Cocklebur” value [5, 12] was 15. The “Plant response rating, Cocklebur” value [5, 13] was 98, the “Plant response rating, Cocklebur” value [5, 14] was 100 and the “Corn plant response rating (0 to 100 scale)” value (corn (Zea mays); [11]) was 25. For the same molecule, the “Plant response rating, Corn” value (corn (Zea mays); [12]) was 5, the “Plant response rating, Corn” value (corn (Zea mays); [13]) was 40 and the “Plant response rating, Corn” value (corn (Zea mays); [14]) was 65. For the same molecule, the “Morningglory plant response rating (0 to 100 scale)” value [6, 11] was 85, the “Plant response rating, Morningglory” value [6, 12] was 55 and the “Plant response rating, Morningglory” value [6, 13] was 100. For the same molecule, the “Plant response rating, Morningglory” value [6, 14] was 100, the “Ragweed plant response rating (0 to 100 scale)” value [7, 11] was 70 and the “Plant response rating, Ragweed” value [7, 12] was 45. The “Plant response rating, Ragweed” value [7, 13] was 90, the “Plant response rating, Ragweed” value [7, 14] was 95 and the “Soybean plant response rating (0 to 100 scale)” value (soybean (Glycine max); [11]) was 95. For the same molecule, the “Plant response rating, Soybean” value (soybean (Glycine max); [12]) was 95, the “Plant response rating, Soybean” value (soybean (Glycine max); [13]) was 100 and the “Plant response rating, Soybean” value (soybean (Glycine max); [14]) was 100. The “Plant response rating, Flood, Barnyardgrass” value [8] was 45, the “Plant response rating, Barnyardgrass” value [8, 15] was 0 and the “Plant response rating, Barnyardgrass” value [8, 16] was 20. For the same molecule, the “Barnyardgrass plant response rating” value [8] was 0, the “Plant response rating, Flood, Ducksalad” value [9] was 95 and the “Plant response rating, Ducksalad” value [9, 15] was 60. The “Plant response rating, Ducksalad” value [9, 16] was 85, the “Ducksalad plant response rating” value [9] was 0 and the “Plant response rating, Flood, Rice” value (rice (Oryza sativa)) was 45. The “Plant response rating, Rice” value (rice (Oryza sativa); [15]) was 0, the “Plant response rating, Rice” value (rice (Oryza sativa); [16]) was 25 and the “Rice plant response rating” value (rice (Oryza sativa)) was 0. The “Plant response rating, Flood, Sedge, Umbrella” value [10] was 100, the “Plant response rating, Sedge, Umbrella” value [10, 15] was 60 and the “Plant response rating, Sedge, Umbrella” value [10, 16] was 85. The “Sedge, Umbrella plant response rating” value [10] was 60.
With `CCCn1c(-c2cc(C)cc(C)c2)ncc(C(=O)C2=C(O)CCCC2=O)c1=O` [Compound 156] the “Plant response rating, Ryegrass, Italian” value [1, 12] was 0, the “Plant response rating, Ryegrass, Italian” value [1, 13] was 20 and the “Plant response rating, Ryegrass, Italian” value [1, 14] was 40. For the same molecule, the “Plant response rating, Surinam Grass” value [2, 12] was 40, the “Plant response rating, Surinam Grass” value [2, 13] was 60 and the “Plant response rating, Surinam Grass” value [2, 14] was 70. For the same molecule, the “Bermudagrass plant response rating (0 to 100 scale)” value ([3]; 13 to 15 days) was 90, the “Plant response rating, Bermudagrass” value [3, 12] was 80 and the “Plant response rating, Bermudagrass” value [3, 13] was 95. The “Plant response rating, Bermudagrass” value [3, 14] was 98, the “Blackgrass plant response rating (0 to 100 scale)” value ([4]; 13 to 15 days) was 5 and the “Plant response rating, Blackgrass” value [4, 12] was 5. For the same molecule, the “Plant response rating, Blackgrass” value [4, 13] was 35, the “Plant response rating, Blackgrass” value [4, 14] was 50 and the “Plant response rating, Cocklebur” value [5, 12] was 20. For the same molecule, the “Plant response rating, Cocklebur” value [5, 13] was 75, the “Plant response rating, Cocklebur” value [5, 14] was 98 and the “Plant response rating, Corn” value (corn (Zea mays); [12]) was 10. For the same molecule, the “Plant response rating, Corn” value (corn (Zea mays); [13]) was 45, the “Plant response rating, Corn” value (corn (Zea mays); [14]) was 60 and the “Plant response rating, Morningglory” value [6, 12] was 80. For the same molecule, the “Plant response rating, Morningglory” value [6, 13] was 100, the “Plant response rating, Morningglory” value [6, 14] was 100 and the “Plant response rating, Ragweed” value [7, 12] was 65. The “Plant response rating, Ragweed” value [7, 13] was 75, the “Plant response rating, Ragweed” value [7, 14] was 90 and the “Plant response rating, Soybean” value (soybean (Glycine max); [12]) was 80. For the same molecule, the “Plant response rating, Soybean” value (soybean (Glycine max); [13]) was 98, the “Plant response rating, Soybean” value (soybean (Glycine max); [14]) was 98 and the “Plant response rating, Flood, Barnyardgrass” value [8] was 60. For the same molecule, the “Plant response rating, Barnyardgrass” value [8, 15] was 20, the “Plant response rating, Barnyardgrass” value [8, 16] was 40 and the “Barnyardgrass plant response rating” value [8] was 0. For the same molecule, the “Plant response rating, Flood, Ducksalad” value [9] was 100, the “Plant response rating, Ducksalad” value [9, 15] was 65 and the “Plant response rating, Ducksalad” value [9, 16] was 80. For the same molecule, the “Ducksalad plant response rating” value [9] was 0, the “Plant response rating, Flood, Rice” value (rice (Oryza sativa)) was 35 and the “Plant response rating, Rice” value (rice (Oryza sativa); [15]) was 30. The “Plant response rating, Rice” value (rice (Oryza sativa); [16]) was 20, the “Rice plant response rating” value (rice (Oryza sativa)) was 30 and the “Plant response rating, Flood, Sedge, Umbrella” value [10] was 100. For the same molecule, the “Plant response rating, Sedge, Umbrella” value [10, 15] was 95, the “Plant response rating, Sedge, Umbrella” value [10, 16] was 100 and the “Sedge, Umbrella plant response rating” value [10] was 0.
